From patent US11046709B2, “Fused 1,4-diazepines as BET bromodomain inhibitors” (THE REGENTS OF THE UNIVERSITY OF MICHIGAN, priority 2017, dated 2021) come the findings set out here.

The target in one data set is T1, recombinant BRD4 BD1 (Homo sapiens, UniProt O60885).
T1 construct: for recombinant BRD4 BD1 and BRD4 BD2 proteins
The data set is described as follows: Competitive fluorescence-polarization (FP) binding assay, BRD4 BD1. The following applies: competitive FP, Table 6; read-out: IC50 as determinined in FP assays BRD4 BD1. On the procedure: Fluorescence Polarization (FP) competitive binding studies were carried out using a FAM labeled fluorescent probe, see, e.g., Cpd. No. 350 of US 2014/0256706, to determine binding affinities of representative Compounds of the Disclosure for recombinant BRD4 BD1 and BRD4 BD2 proteins. Equilibrium dissociation constants (Kd) values of the fluorescent probe to BRD4 BD1 and BD2 proteins were determined from protein saturation experiments by monitoring the total fluorescence polarization of mixtures composed with the fluorescent probe at a fixed concentration and proteins with increasing concentrations up to full saturation. Serial dilutions of testing proteins were mixed with the fluorescent probe to a final volume of 200 μl in the assay buffer (100 mM phosphate buffer, pH=6.5, 0.01% Triton X-100 (Sigma, 282103) being added right before assays). Final fluorescent probe concentration was 1.5 nM for both proteins. Plates were incubated at room temperature for 30 minutes with gentle shaking to assure equilibrium. FP values in millipolarization units (mP) were measured using the Infinite M-1000 plate reader (Tecan U.S., Research Triangle Park, N.C.) in Microfluor 1 96-well, black, round-bottom plates (Thermo Scientific, Waltham, Mass.) at an excitation wavelength of 485 nm and an emission wavelength of 530 nm. Kd values of the fluorescent probe, which were calculated by fitting the sigmoidal dose-dependent FP increases as a function of protein concentrations using Graphpad Prism 6.0 software (Graphpad Software, San Diego, Calif.), are 5.5 and 3.0 nM to BDR4 BD1 and 2, respectively.
The IC50 and Ki values of compounds were determined in a competitive binding experiment. See US 2014/0256706. Mixtures of 10 μl of the tested compounds in assay buffer with 40% Ethylene Glycol and 190 μl of preincubated protein/probe complex solution in the assay buffer (100 mM potassium phosphate, pH 6.5, 0.01% Triton X-100) were added into assay plates which were incubated at room temperature for 30 minutes with gentle shaking. Final concentrations of proteins were 10 and 6 nM in assays for BRD4 BD1 and BD2, respectively. Final probe concentration is 1.5 nM in both assays. Negative controls containing protein/probe complex only (equivalent to 0% inhibition), and positive controls containing only free probes (equivalent to 100% inhibition), were included in each assay plate. FP values were measured as described above. IC50 values were determined by nonlinear regression fitting of the competition curves. Instead of being calculated from IC50 values as described before. Ki values of competitive inhibitors were obtained directly by nonlinear regression fitting as well, based upon the Kd values of the probe to different proteins, and concentrations of the proteins and probes in the competitive assays (US 2014/0256706; Wang, FEBS Lett. 360:111 (1995); Zhang et al., Analytical Biochemistry, 331:138 (2004)).
Representative compounds in Table 5 were evaluated for their binding affinities to BRD4 BD1 and BD2 proteins using the Competitive Fluorescence-Polarization (FP) Assays described in Example 6, with the data included in Table 6.

The next data set deals with T2, recombinant BRD4 BD2 (Homo sapiens, UniProt O60885).
T2 construct: for recombinant BRD4 BD1 and BRD4 BD2 proteins
The data set is described as follows: Competitive fluorescence-polarization (FP) binding assay, BRD4 BD2. Conditions: competitive FP, Table 6; read-out: IC50 as determinined in FP assays BRD4 BD2.

Another data set has as its system MOLM-13. Kind of data set: Cell growth inhibition, 4-day proliferation assay, MOLM-13. It counts as cell-based. The following applies: Homo sapiens, MOLM-13, WST-8 assay, Table 7; read-out: Cell growth inhibition (IC50 (nM)) MOLM-13. Background: Tetrazolium dyes change colour on reduction, which living cells bring about.
Another data set relates to MDA-MB-231. Kind of data set: Cell growth inhibition, 4-day proliferation assay, MDA-MB-231. It is filed as cell-based. The following applies: Homo sapiens, MDA-MB-231; WST-8 assay, Table 7; read-out: Cell growth inhibition (IC50 (nM)) MDA-MB-231. The essentials: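 Cells seeded at 3,000-10,000/well, treated with serially diluted compounds 4 days at 37 °C, 5% CO2. Viability by WST-8 (10% v/v, 1-2 h, A450); readings normalized to DMSO-treated cells, IC50 by four-parameter nonlinear regression.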

Data set [1] is described as follows: Plasma exposure after oral gavage in mice, LC-MS/MS. It counts as in vivo. The following applies: mouse, plasma, mice, oral gavage 25 mg/kg; for concentration at 1 h: read-out: Plasma concentration (ng/mL) 1 h; for concentration at 3 h: read-out: Plasma concentration (ng/mL) 3 h; for concentration at 6 h: read-out: Plasma concentration (ng/mL) 6 h. How it is done:
For a number of representative compounds in Table 5, their plasma exposures with oral administration in mice via oral gavage were determined by LC-MS/MS, with the data shown in Table 9.

A word on the IC50: it is the concentration needed to halve the response being measured. Consider `Cc1c(C#Cc2ccccn2)sc2c1C(c1ccc(Cl)cc1)=N[C@@H](CC(=O)Nc1ccc(O)cc1)c1nnc(C)n1-2` [Compound 125, (S)-2-(4-(4-chlorophenyl)-3,9-dimethyl-2-(pyridin-2-ylethynyl)-6H-thieno[3,2-f][1,2,4]triazolo[4,3-a][1,4]diazepin-6-yl)-N-(4-hydroxyphenyl)acetamide], for which the IC50 on recombinant BRD4 BD1 was found to be 10.2 nM; on recombinant BRD4 BD2, 13.9 nM; in the data set with MOLM-13, 31 nM; with MDA-MB-231, 132 nM. The concentration at 1 h in data set [1] was determined as 2520 ng/mL. For the same molecule, the concentration at 3 h in data set [1] worked out at 407 ng/mL. Also, the concentration at 6 h in data set [1] amounted to 83 ng/mL.

With `Cc1c(C#Cc2ccccn2)sc2c1C(c1ccc(Cl)cc1)=N[C@@H](CC(=O)N1CCN(C)CC1)c1nnc(C)n1-2` [Compound 119, (S)-2-(4-(4-chlorophenyl)-3,9-dimethyl-2-(pyridin-2-ylethynyl)-6H-thieno[3,2-f][1,2,4]triazolo[4,3-a][1,4]diazepin-6-yl)-1-(4-methylpiperazin-1-yl)ethan-1-one], the IC50 at recombinant BRD4 BD1 worked out at 6.9 nM; on recombinant BRD4 BD2, 140 nM; in the data set on MOLM-13, 20.9 nM; in the data set with MDA-MB-231 it was 38.1 nM. Besides, the concentration at 1 h in data set [1] came out at 632 ng/mL. The concentration at 3 h in data set [1] was determined as 370 ng/mL. Moreover, in data set [1], the concentration at 6 h amounted to 52 ng/mL.

For `Cc1nnc(C[C@@H]2N=C(c3ccc(Cl)cc3)c3c(sc(C#CC4CCN(C)CC4)c3C)-n3c(C)nnc32)o1` [Compound 175, (S)-2-((4-(4-chlorophenyl)-3,9-dimethyl-2-((1-methylpiperidin-4-yl)ethynyl)-6H-thieno[3,2-f][1,2,4]triazolo[4,3-a][1,4]diazepin-6-yl)methyl)-5-methyl-1,3,4-oxadiazole], the IC50 at recombinant BRD4 BD1 is 31.8 nM; on recombinant BRD4 BD2, 93.2 nM; in the data set on MOLM-13, 5 nM; with MDA-MB-231, 3.96 nM. Also, the concentration at 1 h in data set [1] worked out at 413 ng/mL. For the same molecule, in data set [1], the concentration at 3 h was found to be 384 ng/mL. Besides, the concentration at 6 h in data set [1] was found to be 68 ng/mL.

In the case of `Cc1c(C#Cc2ccccn2)sc2c1C(c1ccc(Cl)cc1)=N[C@@H](CC(N)=O)c1nnc(C)n1-2` [Compound 109, (S)-2-(4-(4-chlorophenyl)-3,9-dimethyl-2-(pyridin-2-ylethynyl)-6H-thieno[3,2-f][1,2,4]triazolo[4,3-a][1,4]diazepin-6-yl)acetamide], the IC50 on recombinant BRD4 BD1 was 3.8 nM; at recombinant BRD4 BD2, 282 nM; in the data set with MOLM-13, 7.2 nM; in the data set on MDA-MB-231, 2.57 nM. Also, the concentration at 1 h in data set [1] was 2170 ng/mL. Moreover, the concentration at 3 h in data set [1] was determined as 609 ng/mL. The concentration at 6 h in data set [1] turned out to be 184 ng/mL.

`CCNC(=O)C[C@@H]1N=C(c2ccc(Cl)cc2)c2c(sc(C#Cc3ccccn3)c2C)-n2c(C)nnc21` [Compound 110, (S)-2-(4-(4-chlorophenyl)-3,9-dimethyl-2-(pyridin-2-ylethynyl)-6H-thieno[3,2-f][1,2,4]triazolo[4,3-a][1,4]diazepin-6-yl)-N-ethylacetamide]: the IC50 is 8.5 nM on recombinant BRD4 BD1, 27.5 nM at recombinant BRD4 BD2, 47.7 nM with MOLM-13 and 310 ± 100 nM with MDA-MB-231. In addition, in data set [1], the concentration at 1 h was determined as 1540 ng/mL. In data set [1], the concentration at 3 h was found to be 1160 ng/mL. Further, the concentration at 6 h in data set [1] turned out to be 123 ng/mL.

With `Cc1nnc(C[C@@H]2N=C(c3ccc(Cl)cc3)c3c(sc(C#CC4CC4)c3C)-n3c(C)nnc32)o1` [Compound 143, (S)-2-((4-(4-chlorophenyl)-2-(cyclopropylethynyl)-3,9-dimethyl-6H-thieno[3,2-f][1,2,4]triazolo[4,3-a][1,4]diazepin-6-yl)methyl)-5-methyl-1,3,4-oxadiazole], the IC50 came to 8.86 nM at recombinant BRD4 BD1, 21.6 nM on recombinant BRD4 BD2, 6.06 nM in the data set on MOLM-13 and 6.59 nM in the data set with MDA-MB-231. In addition, the concentration at 1 h in data set [1] amounted to 3170 ng/mL. Besides, the concentration at 3 h in data set [1] was determined as 2700 ng/mL. Further, the concentration at 6 h in data set [1] is 3670 ng/mL.

With `Cc1c(C#Cc2ccccn2)sc2c1C(c1ccc(Cl)cc1)=N[C@@H](CC(=O)N1CCOCC1)c1nnc(C)n1-2` [Compound 126, (S)-2-(4-(4-chlorophenyl)-3,9-dimethyl-2-(pyridin-2-ylethynyl)-6H-thieno[3,2-f][1,2,4]triazolo[4,3-a][1,4]diazepin-6-yl)-1-morpholinoethan-1-one], the IC50 is 8.7 nM at recombinant BRD4 BD1, 27.8 nM at recombinant BRD4 BD2, 13.5 nM with MOLM-13 and 60.7 nM with MDA-MB-231. In addition, in data set [1], the concentration at 1 h is 2910 ng/mL. Besides, in data set [1], the concentration at 3 h is 599 ng/mL. Moreover, in data set [1], the concentration at 6 h stood at 473 ng/mL.

Take `Cc1nnc(C[C@@H]2N=C(c3ccc(Cl)cc3)c3c(sc(C#CC(C)(C)O)c3C)-n3c(C)nnc32)o1` [Compound 144, (S)-4-(4-(4-chlorophenyl)-3,9-dimethyl-6-((5-methyl-1,3,4-oxadiazol-2-yl)methyl)-6H-thieno[3,2-f][1,2,4]triazolo[4,3-a][1,4]diazepin-2-yl)-2-methylbut-3-yn-2-ol]: the IC50 at recombinant BRD4 BD1 is 21.8 nM; on recombinant BRD4 BD2 it was 26.4 nM; in the data set with MOLM-13 it was 36.4 nM; in the data set with MDA-MB-231, 288 nM. In addition, the concentration at 1 h in data set [1] amounted to 4160 ng/mL. Besides, in data set [1], the concentration at 3 h amounted to 7580 ng/mL. The concentration at 6 h in data set [1] is 1120 ng/mL.

As to `Cc1c(C#Cc2cccnc2)sc2c1C(c1ccc(Cl)cc1)=N[C@@H](CC(N)=O)c1nnc(C)n1-2` [Compound 113, (S)-2-(4-(4-chlorophenyl)-3,9-dimethyl-2-(pyridin-3-ylethynyl)-6H-thieno[3,2-f][1,2,4]triazolo[4,3-a][1,4]diazepin-6-yl)acetamide], the IC50 was 4.1 nM at recombinant BRD4 BD1, 11.4 nM on recombinant BRD4 BD2, 2.7 nM in the data set on MOLM-13 and 23.9 nM with MDA-MB-231.

`Cc1c(C#Cc2ccccn2)sc2c1C(c1ccc(Cl)cc1)=N[C@@H](CC(=O)NC1CCN(C)CC1)c1nnc(C)n1-2` [Compound 130, (S)-2-(4-(4-chlorophenyl)-3,9-dimethyl-2-(pyridin-2-ylethynyl)-6H-thieno[3,2-f][1,2,4]triazolo[4,3-a][1,4]diazepin-6-yl)-N-(1-methylpiperidin-4-yl)acetamide]: the IC50 worked out at 8.7 nM at recombinant BRD4 BD1, 19 nM on recombinant BRD4 BD2, 3.84 nM in the data set with MOLM-13 and 13 nM with MDA-MB-231.

As to `Cc1c(C#Cc2cccnc2)sc2c1C(c1ccc(Cl)cc1)=N[C@@H](CC(=O)N1CCN(C)CC1)c1nnc(C)n1-2` [Compound 115, (S)-2-(4-(4-chlorophenyl)-3,9-dimethyl-2-(pyridin-3-ylethynyl)-6H-thieno[3,2-f][1,2,4]triazolo[4,3-a][1,4]diazepin-6-yl)-1-(4-methylpiperazin-1-yl)ethan-1-one], the IC50 stood at 9.6 nM at recombinant BRD4 BD1, 6.3 nM on recombinant BRD4 BD2, 21.9 nM in the data set with MOLM-13 and 65.1 nM with MDA-MB-231.
